The values that follow come from patent US20110039762A1, “TARGETED ANTIMICROBIAL MOIETIES” (C3 JIAN, INC., priority 2009, published 2011).

Entries after “also recorded” stand apart in the source; their conditions may differ.

The test system of one assay is microorganisms (e.g., bacteria, yeasts, fungi). The experiment in a line: Targeting peptide binding to target microorganisms (Table 3). The conditions noted are these: microorganism the targeting peptide binds; binding in aqueous buffers varied by peptide solubility, preferably 1x PBS.
In the case of “TT-310 (TKLKKNNKLLSAKKENTLHTKDK; Peptide with targeting and/or antimicrobial activity)”, the “Target(s)” value is “F. nucleatum”.
In the case of “1T-13 (FRSPCINNNSLQPPGVYPAR; Peptide with targeting and/or antimicrobial activity) [Peptide 1T-13]”, the “Target(s)” value is listed as “S. aureus; also recorded: S. epidermidis; also recorded: P. aeruginosa”.
“1T-261 (SFEKNKIENNLKIAQAYIYIKPKPRICQA; Peptide with targeting and/or antimicrobial activity) [Peptide 1T-261]”: the “Target(s)” value is given as “F. nucleatum; also recorded: S. mutans; also recorded: S. oralis; also recorded: S. sanguinis”.
Still for that read-out and setting: the same measure for “1T-177 (GTNVPTQILGYSREERFDYEPAPEQR; Peptide with targeting and/or antimicrobial activity) [Peptide 1T-177]”: “P. gingivalis; also recorded: S. gordonii; also recorded: S. mitis; also recorded: S. mutans; also recorded: S. oralis; also recorded: S. salivarious; also recorded: S. sanguinis”; for “1T-199 (RAGRIKKLSQKEAEPFEN; Peptide with targeting and/or antimicrobial activity) [Peptide 1T-199]”: “S. sanguinis”.
The same measure, in the same setting: next, “1T-89 (HEDDKRRGMSVEVLGFEVVQHEE; Peptide with targeting and/or antimicrobial activity) [Peptide 1T-89]”: “S. mitis; also recorded: S. mutans”; “1T-121 (FAKETGFGIGGAQEGWWIIADIYGPNPF; Peptide with targeting and/or antimicrobial activity) [Peptide 1T-121]”: “S. gordonii; also recorded: S. mitis; also recorded: S. mutans; also recorded: S. oralis; also recorded: S. salivarious; also recorded: S. sanguinis”; “TT-308 (GLVIIPNLIALIILFSQVRQQTKDYFSNPKLSSR; Peptide with targeting and/or antimicrobial activity)”: “F. nucleatum”.
On to “1T-239 (ADDLLNKRLTDLIMENAETVKTIDLDNSD; Peptide with targeting and/or antimicrobial activity) [Peptide 1T-239]”, for which the “Target(s)” value is on record as “A. naeslundii; also recorded: S. gordonii; also recorded: S. mitis; also recorded: S. mutans; also recorded: S. oralis; also recorded: S. sanguinis”.
In the case of “1T-36 (VYRHLRFIDGKLVEIRLERK; Peptide with targeting and/or antimicrobial activity) [Peptide 1T-36]”, the “Target(s)” value is on record as “S. aureus; also recorded: S. epidermidis; also recorded: C. jeikeium; also recorded: C. xerosis; also recorded: C. striatum; also recorded: P. aeruginosa”.
For the substance “PF-S024 (SKRGRKRKDRRKKKANHGKRPNS; Peptide with targeting and/or antimicrobial activity)”, the “Target(s)” value was “Corynebacteria”.
On the same count and under the same terms, next, “1T-74 (DIDWGRKISCAAGVAYGAIDGCATTV; Peptide with targeting and/or antimicrobial activity) [Peptide 1T-74]”: “S. pneumoniae”; “1T-90 (RNVIGQVL; Peptide with targeting and/or antimicrobial activity) [Peptide 1T-90]”: “S. gordonii; also recorded: S. mitis; also recorded: S. mutans; also recorded: S. oralis; also recorded: S. sanguinis”; “PF-062 (MKKKRINNDILGRMIYSSSIDKRNLYNLKYYE; Peptide with targeting and/or antimicrobial activity)”: “S. epidermidis and M. luteus and E. coli and P. aeruginosa and MRSA and S. pneumoniae and E. faecalis and C. jeikeium”.
Still for that read-out and setting: next, “1T-33 (VRTLTILVIFIFNYLKSISYKLKQPFENNLAQSMISI; Peptide with targeting and/or antimicrobial activity) [Peptide 1T-33]”: “S. aureus; also recorded: S. epidermidis; also recorded: C. jeikeium; also recorded: C. xerosis; also recorded: C. striatum; also recorded: P. aeruginosa”.
As to “1T-41 (KRGSKIVIAIAVVLIVLAGVWVW; Peptide with targeting and/or antimicrobial activity) [Peptide 1T-41]”, the “Target(s)” value is on record as “S. mutans; also recorded: S. aureus; also recorded: S. epidermidis; also recorded: C. jeikeium; also recorded: C. striatum; also recorded: P. aeruginosa”.
In the case of “1T-55 (NHKTLKEWKAKWGPEAVESWATLLG; Peptide with targeting and/or antimicrobial activity) [Peptide 1T-55]”, the “Target(s)” value is given as “C. xerosis; also recorded: P. aeruginosa”.
In the case of “1T-26 (LTILPTTFFAIIVPILAVAFIAYSGFKIKGIVEHKDQW; Peptide with targeting and/or antimicrobial activity) [Peptide 1T-26]”, the “Target(s)” value is recorded as “S. mutans; also recorded: S. aureus; also recorded: S. epidermidis; also recorded: C. jeikeium; also recorded: C. xerosis; also recorded: C. striatum; also recorded: P. aeruginosa”.
For “1T-6 (KFINGVLSQFVLERK; Peptide with targeting and/or antimicrobial activity) [Peptide 1T-6]”, the “Target(s)” value is on record as “S. mutans”.
Same read-out and setting: next, “PF-050 (SYYLKRREEKGK; Peptide with targeting and/or antimicrobial activity)”: “S. epidermidis; also recorded: M. luteus; also recorded: E. coli; also recorded: C. jeikeium”; “1T-21 (YVEEAVRAALKKEARISTEDTPVNLPSFDC; Peptide with targeting and/or antimicrobial activity) [Peptide 1T-21]”: “S. mutans; also recorded: P. aeruginosa”.

The same assay, now with this note: microorganism(s) the targeting peptide binds; binding in aqueous buffers depending on peptide solubility, preferably 1x PBS.
In the case of “PF-158 (VRLESRPADLPE; Peptide with targeting and/or antimicrobial activity)”, the “Target(s)” value is “S. epidermidis”.
As for “PF-207 (AAGCRDLGSLSSLVTNPS; Peptide with targeting and/or antimicrobial activity)”, the “Target(s)” value is “M. luteus; also recorded: C. jeikeium”.
As for “PF-097 (QPTQGEQGTRPRRPTPMRGLLI; Peptide with targeting and/or antimicrobial activity)”, the “Target(s)” value is “C. jeikeium”.
The same measure, in the same setting: next, “PF-161 (RGRALASTATTRPARRRR; Peptide with targeting and/or antimicrobial activity)”: “S. epidermidis; also recorded: M. luteus; also recorded: E. coli; also recorded: C. jejuni”; “PF-311 (IDAVTKKKTTCMIRAPTKIPIAHTDN; Peptide with targeting and/or antimicrobial activity)”: “C. difficile”; “PF-169 (APGSAADSPRSRADD; Peptide with targeting and/or antimicrobial activity)”: “S. epidermidis; also recorded: E. coli; also recorded: C. albicans; also recorded: E. faecalis; also recorded: C. jeikeium”.
“PF-340 (VKDVLLELFNKIIGA; Peptide with targeting and/or antimicrobial activity)”: the “Target(s)” value was “S. mutans; also recorded: E. coli”.
As to “PF-230 (EDKPTNTIQEIKPVKWQ; Peptide with targeting and/or antimicrobial activity)”, the “Target(s)” value is reported as “S. mutans”.
On to “PF-337 (YMTKKLVEMAERQMAGK; Peptide with targeting and/or antimicrobial activity)”, for which the “Target(s)” value is “S. epidermidis”.
On to “PF-300 (VKDVLLELFNKIIGA; Peptide with targeting and/or antimicrobial activity)”, for which the “Target(s)” value is recorded as “B. subtilis; also recorded: C. difficile”.
Turning to “PF-245 (MNDVKPVVQPKQTLKAFLVQLLSVRAGVYIKQNNQLPKTKG; Peptide with targeting and/or antimicrobial activity)”, the “Target(s)” value is on record as “S. epidermidis; also recorded: M. luteus; also recorded: P. aeruginosa; also recorded: A. baumannii”.

Still in this assay, the particulars now being: microorganism(s) the targeting peptide binds; peptide binding conducted in aqueous buffers varied by peptide solubility, preferably 1x PBS.
As for “PF-500 (MGIFKEEKIKFIDCKGEEVILKIKIKDIKK; Peptide with targeting and/or antimicrobial activity)”, the “Target(s)” value is “S. mutans; also recorded: E. coli”.
The same measure, in the same setting: next, “PF-496 (EVTKRLVALAQQQLRG; Peptide with targeting and/or antimicrobial activity)”: “S. mutans; also recorded: E. coli”; “PF-486 (MQKEGEEDY; Peptide with targeting and/or antimicrobial activity)”: “S. mutans”.

The assay is the same for the next values; noted with them: peptide binding in aqueous buffers varied by peptide solubility; preferably 1x PBS.
“PF-751 (AESSPAQETT; Peptide with targeting and/or antimicrobial activity)”: the “Target(s) (microorganisms bound by the targeting peptide)” value is “S. epidermidis; also recorded: E. coli; also recorded: C. albicans; also recorded: C. jeikeium”.
In the case of “PF-794 (NLYFENQGN; Peptide with targeting and/or antimicrobial activity)”, the “Target(s) (microorganisms bound by the targeting peptide)” value is listed as “S. mutans”.
For the substance “PF-711 (KTAGPTGTIYKTN; Peptide with targeting and/or antimicrobial activity)”, the “Target(s) (microorganisms bound by the targeting peptide)” value was “S. mutans”.
Take “PF-792 (ALHASGIQAI; Peptide with targeting and/or antimicrobial activity)”: the “Target(s) (microorganisms bound by the targeting peptide)” value is “S. mutans”.
Turning to “PF-C008 (AQPRRTWLVNFGEVPSPGLTNDGMPDH; Peptide with targeting and/or antimicrobial activity)”, the “Target(s) (microorganisms bound by the targeting peptide)” value is “A. naeslundii”.
In the case of “PF-799 (YTHYNTALSYALLLTNKSSVP; Peptide with targeting and/or antimicrobial activity)”, the “Target(s) (microorganisms bound by the targeting peptide)” value is listed as “S. mutans”.
With “PF-674 (DGCDSEPALTYR; Peptide with targeting and/or antimicrobial activity)”, the “Target(s) (microorganisms bound by the targeting peptide)” value is “S. mutans; also recorded: E. coli”.
Regarding “PF-777 (PGADGKLAEASAAIARLVRS; Peptide with targeting and/or antimicrobial activity)”, the “Target(s) (microorganisms bound by the targeting peptide)” value was “Mycobacteria spp”.
Still for that read-out and setting: next, “PF-789 (PRGAQSGHG; Peptide with targeting and/or antimicrobial activity)”: “Mycobacteria spp”.
